In ChEMBL document CHEMBL1136563, “Pharmacophore-based discovery of substituted pyridines as novel dopamine transporter inhibitors” (Bioorg Med Chem Lett, 2003):

Experiments:
[1] = molecular target: Sodium-dependent dopamine transporter (Rattus norvegicus, UniProt P23977); test: Inhibition of reuptake of DA into striatal nerve endings (synaptosomes); assay type: subcellular, Brain
[2] = molecular target: T1, Sodium-dependent dopamine transporter (Homo sapiens, UniProt Q01959); test: Affinity to displace binding of [3H]WIN-35428 to dopamine transporter
[3] = molecular target: T1, Sodium-dependent dopamine transporter; test: Inhibition of [3H]DA uptake evaluated at the dopamine transporter
[4] = molecular target: Sodium-dependent serotonin transporter (Homo sapiens, UniProt P31645); test: Inhibition of [3H]-5-HT uptake evaluated at the Serotonin transporter
[5] = molecular target: Sodium-dependent noradrenaline transporter (Homo sapiens, UniProt P23975); test: Inhibition of [3H]-NE uptake evaluated at the monoamine transporter (NET)

SMILES	Ki [1] [nM]	Ki [2] [nM]	Ki [3] [nM]	Ki [4] [nM]	Ki [5] [nM]
Clc1ccccc1/C=C(/c1ccccc1)c1ccccn1	> 1000	–	–	–	–
c1ccc(Cc2ccnc(Cc3ccccc3)c2)cc1	2300	–	–	–	–
c1ccc(-c2nnnn2-c2cnc3ccccc3c2)cc1	> 1000	–	–	–	–
CN=C=C(c1ccc(Cl)cc1)c1ccc(Cl)cc1	> 1000	–	–	–	–
c1ccc(C(c2ccccc2)c2cccnc2)cc1	–	780	860	12600	7320
c1ccc2cc(-c3nnnn3-c3cnc4ccccc4c3)ccc2c1	> 1000	–	–	–	–
c1cncc(-c2c3ccccc3cc3ccccc23)c1	–	> 10000	> 10000	> 10000	> 10000
Clc1cnc(-c2ccccc2)n1Cc1ccccc1	> 1000	–	–	–	–
c1ccc(C(c2ccccc2)c2ccncc2)cc1	200	79	255	1160	3460
c1ccc(CC(c2ccccc2)c2ccncc2)cc1 (configuration not stated)	–	99	263	910	393
CN=C=C(c1ccccc1)c1ccccc1	> 1000	–	–	–	–
CN(C)CCC(C#N)(c1ccccc1)c1ccccc1	> 1000	–	–	–	–
c1ccc(C(c2ccccc2)c2ccccn2)cc1	–	742	–	35000	5530
c1ccc2c(-c3ccncc3)c3ccccc3cc2c1	–	> 10000	> 10000	> 10000	> 10000
c1ccc(Cc2ccncc2)cc1	–	> 10000	> 10000	> 10000	> 10000
N#Cc1c(Cl)nnc(-c2ccccc2)c1-c1ccccc1	> 1000	–	–	–	–
